# In patent publication US20260102407A1, “TREATMENT METHODS” (priority 2020, published 2026):
# How the values were obtained:
# VCAM-1 = assay: Matrigel plug assay, VCAM-1 staining; type: in vivo; details: C57BL/6 mice; 2.5 mg/mouse; 7 days
# Method: Matrigel plug assay. Matrigel (500 μl) containing VEGF-A165 (100 ng/ml), heparin (10U) and BT2 or BT3 (2.5 mg/mouse) or its vehicle (saline containing 0.01% DMSO and 0.5% Tween 80) was injected subcutaneously into the left flanks of male 8 week-old C57BL/6 mice. After 7d the mice were sacrificed by CO2 asphyxiation and the plugs carefully removed. Formalin-fixed paraffin embedded sections were prepared from Matrigel plugs for immunohistological assessment. Heat-induced epitope retrieval was applied to all deparaffinized sections (4 μm Superfrost slides) in citrate buffer, pH 6 for 5 min at 110° C. Immunostaining for all groups with a given antibody was performed simultaneously and development time was identical. […]
# Slides were scanned using an Aperio ScanScope XT slide scanner (Leica Biosystems, Mt Waverley, Vic Australia) and images captured using ImageScope software (Leica Biosystems). Positive intraplug staining was assessed using Image-Pro Plus software (Cybernetics, Bethesda, MD) in 5-12 randomly selected fields of view for each plug photographed under 10× (CD31), 20× (VCAM-1) and 40× (FosB) objectives and expressed as integrated optical density (IOD, the product of calibrated intensity (optical density) and area, i.e. IOD=intensity (mean)×area) (Media Cybernetics) (Liu, H., et al., Sci Rep 6, 21319 (2016)). […]
# AP-1 response element = AP-1 response element Firefly luciferase high-throughput screen in 293/AP-1-luc cells; type: cell-based, human; details: 11-point titration curves; TPA-induced 293/AP-1-luc cells
# Excerpt: High-throughput screen of compound library. Hits were selected from the ˜100,000 compound Lead Discovery Library at the HTS Facility at Walter & Eliza Hall Institute of Medical Research (WEHI, Bundoora, Vic) with a commercially-available human embryonic kidney (HEK)-293 cell-based assay in 384-well microtitre plates in which Firefly luciferase was driven by multiple copies of the AP-1 response element (293/AP-1-luc cells, Panomics, Fremont, CA). Briefly, the cell-based assay involved plating 5×10^3 cells into 384-well plates in DMEM, pH 7.4 containing 10% FBS. After ˜18 h, the cells were induced with 10 ng/ml […] (TPA) (Sigma, St Louis, MO) in the absence or presence of test compound, then after ˜18 h, luciferase activity was measured using a luminometer. The hit rate of the primary screen was 2.4%. […] A substructure filter was then applied to remove pan-assay interference compounds (Baell, J. B., et al., J Med Chem 53, 2719-2740 (2010)) and using the most stringent filtering criteria 256 hits were selected for further study. After dose response testing, 24 compounds with molecular weight <400 Da were reordered from suppliers and tested in secondary assays.
structure (smiles),measurement,setting,value
"CCOC(=O)Nc1ccc2c(c1)C(=O)N(CC)c1ccccc1O2 [BT2, (10-ethyl-11-oxo-10,11-dihydro-dibenzo[b,f][1,4]oxazepin-2-yl)-carbamic acid ethyl ester]",VCAM-1 immunoreactivity in Matrigel plugs,VCAM-1,inhibited
same,"IC50, AP-1 luciferase screen",AP-1 response element,micromolar or submicromolar range
